Data set [1] addresses T1, msGFP-HaloTag® fusion protein (mitochondria) from HEK293T cells (Rhodococcus rhodochrous, UniProt P0A3G2, A155T/A167V/A172T/A224E/C128F/C176G/D78G/E160K/E257K/H272N/K175M/K195N/L47V/L88M/N227D/S58T/T264A/Y273L/Y87F).
T1 construct: and (4) HaloTag®; expressed in transfected cells; host or cells: HEK293T, calcium phosphate transfection
Nature of the data set: Affinity capture (streptavidin microbeads) and in-gel fluorescence. The following applies: for capture efficiency: mean±SEM, n=3, streptavidin beads; for affinity capture (protein bound to streptavidin): streptavidin beads. The format is cell-based. The method, then:
Affinity capture and in-gel fluorescence experiments. Affinity capture pulldown isolation experiments of biotin-labeled HaloTag® fusion proteins were performed on ice-cold isolation buffer (IB) consisting of KCl (0.18 M), ethylene glycol-bis(β-aminoethyl ether)-N,N,N′,N′-tetraacetic acid (EGTA; 1 mM), 3-(N-morpholino)propanesulfonic acid (MOPS; 5 mM); the pH was adjusted to pH=7.35 using KOH(aq).^51 HEK293T cells were scraped with 500 μL IB and homogenized using 12 strokes with a 27G syringe. The resulting homogenate was spun at 4° C. at 1000 g for 3 min to pellet large cellular debris. 50 μL of streptavidin-coated microbeads (Miltenyi, 130-048-101) were added to the supernatant and incubated for 30 min at 4° C. with slow rotation. LS columns (Miltenyi, 130-042-401) were prepared by first washing with 3 mL IB consisting of 2.5% bovine serum albumin (BSA; Jackson ImmunoResearch, 001-000-162) and then with plain IB (3×). Prior to supernatant-microbead mixture being loaded onto LS columns, 5% volume was taken for downstream total fraction calculations (i.e., the “total/20” sample). Columns and samples were kept at 4° C. (cold room) while samples were loaded onto columns and washed with IB (3×); this fraction was collected as designated as “wash”. After the washing step, the column was removed from the QuadroMACs magnet holder (Miltenyi, 130-092-857) and eluted with gentle plunge action into an Eppendorf tube; this was labeled as “eluate”. From here, there were three fractions for each condition: total/20, wash (unbound), and eluate (bound). Since mitochondria were being isolated, these samples were spun at 4° C. and 20,000 g to pellet mitochondria. These samples were then solubilized using the lysis buffer containing 1×PBS, 2% SDS, 1% Triton x-100, 10 mM EDTA, and protease inhibitors (2 mM PMSF, aprotinin, leupeptin, and pepstatin A). Samples were then incubated at 72° C. for 3-4 min after the addition of sample buffer (SB) (DTT, glycerol, and bromophenol blue). For protein detection, 10-20 μL of the sample was subjected to sodium dodecyl sulfate-polyacrylamide gel electrophoresis (SDS-PAGE), using 13% gels. The affinity capture pulldown efficiency was monitored using in-gel fluorescence. The msGFP signal from HaloTag®-TEV-4×GS-msGFP-mito after cell lysis and SDS-PAGE was analyzed, in-gel, using a BioRad Chemidoc MP imager (BioRad) through GFP fluorescence excitation and emission filters. Data were quantified by densitometry using Fiji.^52 Capture efficiency was calculated using equation 3:
[formula] • where Ieluate is the in-gel fluorescence intensity of the bead-bound fraction and Itotal/20 is the in-gel fluorescence intensity of the 5% of crude sample reserved for concentration control (i.e., the “total/20” sample).
Evaluation of biotin-HaloTag® ligand. A live cell permeable biotin reagent was saught for affinity pulldown of HaloTag® fusion proteins, given the broad utility of biotin conjugates in biochemistry and cell biology. To evaluate the performance of biotin-containing HaloTag® ligand, an assay was developed (FIG. 3A) where the HaloTag® is expressed as a fusion with monomeric superfolder green fluorescent protein (msGFP); the construct also included an OMP25 sequence to localize the fusion protein to the outer mitochondrial membrane, allowing straightforward imaging and affinity capture experiments.^28-29 HEK293T cells expressing this fusion protein were incubated with biotin-containing HaloTag® ligands followed by washing and cell lysis. The crude supernatant was incubated with streptavidin-coated magnetic microbeads, applied to a magnetic column, and washed. The magnet was removed, and the bead-bound mitochondria were eluted, lysed, and the resulting solution was analyzed by sodium dodecyl sulfate-polyacrylamide gel electrophoresis (SDS-PAGE) and in-gel fluorescence. To minimize dilution of the sample only the initial bead-bound fraction was collected, leaving some material on the column. […]

In data set [2] the test system is HaloTag®-histone H2B fusion protein. The format is cell-based. The following applies: for time to reach saturation of labeling: 200 nM, live U2OS cells expressing HaloTag®-H2B, 0-4 h. The protocol:
Dye loading kinetics. Live U2OS.H2B.HaloTag® stable cells were labeled over a time course of 0-4 h with 200 nM of biotin-JF549-HaloTag® ligand (12), biotin-JF608-HaloTag® ligand (13), biotin-JF646-HaloTag® ligand (14), or biotin-JF635-HaloTag® ligand (15) at 37° C. Cells were then washed 3× with dye-free media, fixed with 4% paraformaldehyde in 0.1 M phosphate buffer, pH 7.4 for 15 min at 37° C. Confocal imaging was performed on a Leica SP8 with an HC PL APO CS2 20×/0.75 immersion objective using the tunable white light laser (WLL) to excite dyes at their λabs in constant power mode. Fluorescence was quantified as the average integrated density of background corrected nuclear signals from confocal image stack projections analyzed in FIJI; n=100 nuclear signals per compound.

A short description of data set [3]: 1-Photon spectroscopy and quantum yield of HaloTag® ligands. The format is physicochemical. The note with it: free ligand, 10 mM HEPES pH 7.3. The method, then:
1-Photon spectroscopy of HaloTag® ligands and HaloTag® conjugates. […] All measurements were taken at ambient temperature (22 ±2° C.). Absorption spectra were recorded on a Cary Model 100 spectrometer (Agilent) using 1-cm path length 1.0-mL quartz microcuvettes from Starna Cells. Fluorescence spectra were recorded on a Cary Eclipse fluorometer (Varian) using 1-cm path length 3.5-mL quartz cuvettes (Starna Cells). As before,^13, 23, 32, 45 HaloTag® protein was used as a 100 μM solution in 1×TBS. HaloTag® ligands 12-15 (5 μM) were dissolved in 10 mM HEPES, pH 7.3, containing 0.1 mg/mL CHAPS. An aliquot of HaloTag® protein (1.5 equiv) was added, and the resulting mixture was incubated until a consistent absorbance signal was observed (60-120 min). To measure the fold-increase of absorbance upon HaloTag® binding, a “no HaloTag®” control experiment was performed where an equivalent volume of TBS blank was added in place of the protein. Reported values for extinction coefficient (ε) are averages of at least two measurements.
Quantum yield determination. All reported absolute fluorescence quantum yield values (Φf) were measured in the laboratory under identical conditions using a Quantaurus-QY spectrometer (model C11374, Hamamatsu). This instrument uses an integrating sphere to determine photons absorbed and emitted by a sample. Measurements were performed using dilute samples (absorbance<0.1), and self-absorption corrections were performed using the instrument software.^46 Reported values are averages of at least two measurements.

T1 sequence (P0A3G2 other isoform, or with tags, fused parts or gaps with the stated changes): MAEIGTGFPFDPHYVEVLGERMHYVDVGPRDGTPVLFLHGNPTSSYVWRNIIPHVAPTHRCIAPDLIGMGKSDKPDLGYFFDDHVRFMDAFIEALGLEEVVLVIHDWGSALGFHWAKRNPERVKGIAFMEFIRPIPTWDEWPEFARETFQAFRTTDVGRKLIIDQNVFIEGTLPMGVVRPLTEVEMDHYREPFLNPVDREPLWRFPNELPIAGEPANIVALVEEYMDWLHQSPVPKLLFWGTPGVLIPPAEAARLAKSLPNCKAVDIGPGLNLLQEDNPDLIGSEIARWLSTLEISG

For `C[Si]1(C)C2=CC(=[N+]3CC(C(=O)NCCOCCOCCNC(=O)CCCC[C@@H]4SC[C@@H]5NC(=O)N[C@@H]54)C3)C=CC2=C(c2cc(C(=O)NCCOCCOCCCCCCCl)ccc2C(=O)[O-])c2ccc(N3CCC3)cc21` (some centres unmarked) [compound 14, Biotin-JF646-HaloTag® ligand], in data set [1], the capture efficiency is recorded as 44.8±2.8% and the “affinity capture (protein bound to streptavidin)” value was “efficient affinity capture”. The “time to reach saturation of labeling” value in data set [2] is “approximately 1 h”. For the same compound, in data set [3], the “extinction coefficient (ε)” value is reported as 34,000 M^−1cm^−1, the “fluorescence quantum yield (Φf)” value was found to be 0.56, the λabs was determined as 647 nm and the λem was determined as 666 nm.

As for `C[Si]1(C)C2=CC(=[N+]3CC(F)(C(=O)NCCOCCOCCNC(=O)CCCC[C@@H]4SC[C@@H]5NC(=O)N[C@@H]54)C3)C=CC2=C(c2cc(C(=O)NCCOCCOCCCCCCCl)ccc2C(=O)[O-])c2ccc(N3CC(F)C3)cc21` (some centres unmarked) [compound 15, Biotin-JF635-HaloTag® ligand], in data set [1], the capture efficiency worked out at 43.4±2.3% and the “affinity capture (protein bound to streptavidin)” value is “efficient affinity capture”. Besides, the “time to reach saturation of labeling” value in data set [2] is reported as “approximately 1 h”. Besides, in data set [3], the “extinction coefficient (ε)” value is on record as 2,900 M^−1cm^−1, the “fluorescence quantum yield (Φf)” value amounted to 0.60, the λabs is listed as 636 nm and the λem stood at 655 nm.

For `C[Si]1(C)c2cc(N3CC(F)C3)ccc2C2(OC(=O)c3ccc(C(=O)NCCOCCOCCCCCCCl)cc32)c2ccc(N3CC(F)C3)cc21` [5HTL, JF635-HaloTag® ligand, reference compound], the “affinity capture (protein bound to streptavidin)” value in data set [1] is reported as “no appreciable protein capture”.

On to “Biotin-JF549-HaloTag® ligand [compound 12]”, for which the membrane permeability result in data set [2] is on record as “negligible membrane permeability”. In data set [3], the “extinction coefficient (ε)” value was 92,000 M^−1cm^−1, the “fluorescence quantum yield (Φf)” value came to 0.90, the λabs came out at 552 nm and the λem is 575 nm.

The values above are taken from patent US20240239818A1, “COMPOUNDS AND COMPOSITIONS COMPRISING FLUOROPHORES FOR USE IN VISUALIZATION AND PURIFICATION OR MANIPULATION” (priority 2022, published 2024).
